Experimental data reported in ChEMBL document CHEMBL1131712, “Short synthesis and anti-rhinoviral activity of imidazo[1,2-a]pyridines: the effect of acyl groups at 3-position” (Bioorg Med Chem Lett, 1999).
Converted amounts (≈) assume the structure as drawn.

Columns and labels:
[1] = Cellular toxic concentration against Human rhinovirus-14 (HRV-14) using cytopathic effect assay(CPE/XTT); type: organism-based, Enterovirus; details: read-out: TC50 (the source's name)
rhinovirus B14 = test: Inhibitory concentration required against Human rhinovirus-14 (HRV-14) using plaque reduction assay; type: functional, organism-based, Enterovirus; details: Rhinovirus B

| IC50 (rhinovirus B14) [µg/mL] | SMILES | CC50 [1] [µg/mL] |
| --- | --- | --- |
| 2.48 (≈ 7.42 µM) | CNC(=O)/C=C(\c1ccccc1)c1ccc2nc(N)c(C(C)=O)n2c1 | 22.8 (≈ 68.2 µM) |
| 0.37 (≈ 0.893 µM) | CNC(=O)/C=C(\c1ccccc1)c1ccc2nc(N)c(C(=O)c3ccc(F)cc3)n2c1 | 3.97 (≈ 9.58 µM) |
| 0.045 (≈ 0.126 µM) | CC(C)S(=O)(=O)n1c(N)nc2ccc(/C(=N/O)c3ccccc3)cc21 [ENVIROXIME] | – |
| 0.17 (≈ 0.452 µM) | CNC(=O)/C=C(\c1ccccc1)c1ccc2nc(N)c(C(=O)C(C)(C)C)n2c1 | > 10 |
| 0.24 (≈ 0.605 µM) | CNC(=O)/C=C(\c1ccccc1)c1ccc2nc(N)c(C(=O)c3ccccc3)n2c1 | 2.95 (≈ 7.44 µM) |
